Measured values reported in US12195427B2, “MASP-2 inhibitors and methods of use” (priority 2018, dated 2025).

Molecular target: MASP-2 CCP2-SP (Homo sapiens (Human), UniProt O00187)
Assay: MASP-2 co-crystallization, X-ray crystallography and structure analysis (H-bonds, van der Waals contacts);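 for Ligand-pharmacophore element distance, pharmacophore element C2: distance from averaged pharmacophore element to bound ligand; missing value means element absent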;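 for Ligand-pharmacophore element distance, pharmacophore element C3: distance from averaged pharmacophore element to bound ligand; missing value means element absent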;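 for Ligand-pharmacophore element distance, pharmacophore element C4: distance from averaged pharmacophore element to bound ligand; missing value means element absent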;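 for Ligand-pharmacophore element distance, pharmacophore element C5: distance from averaged pharmacophore element to bound ligand; missing value means element absent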
Design: van der Waals contact distance, MASP-2 HIS 483 atom CD2 / van der Waals contact distance, MASP-2 HIS 483 atom NE2 / van der Waals contact distance, SER 654 C to compound atom / van der Waals contact distance, SER 654 O to compound atom / van der Waals contact distance, TRP 655 C to compound atom / van der Waals contact distance, MASP-2 GLY 528 atom CA / van der Waals contact distance TRP 655 atom CZ3 / van der Waals contact distance TRP 655 atom N / van der Waals contact distance TRP 655 atom CE3 / van der Waals contact distance GLY 656 atom C / van der Waals contact distance GLY 656 atom CA / van der Waals contact distance GLY 656 atom O / van der Waals contact distance, MASP-2 TYR 607 atom CD1 / van der Waals contact distance, MASP-2 PRO 606 atom O / d(C3,CA1) / d(CA1,N1)2 / d(H4,O1) / d(H4,O2) / d(O1,O2) / d(CA1,O2) / d(CA6,O1) / d(CA6,O2) / d(CA1,C5) / d(O2,H3) / d(N2,C2) / d(CA5,N2) / d(N2,C4) / d(N2,C6) / d(N2,CA3) / d(N2,O3) / d(O4,H2): unit not given beside the values
Details: for Ligand-pharmacophore element distance, pharmacophore element C2 / Ligand-pharmacophore element distance, pharmacophore element C3 / Ligand-pharmacophore element distance, pharmacophore element C4 / Ligand-pharmacophore element distance, pharmacophore element C5 / Ligand-pharmacophore element distance, pharmacophore element C6 / Ligand-pharmacophore element distance, pharmacophore element C7 / Ligand-pharmacophore element distance, pharmacophore element CA1 / Ligand-pharmacophore element distance, pharmacophore element CA2 / Ligand-pharmacophore element distance, pharmacophore element CA3 / Ligand-pharmacophore element distance, pharmacophore element CA4 / Ligand-pharmacophore element distance, pharmacophore element CA5 / Ligand-pharmacophore element distance, pharmacophore element CA6: Table A4-1; for d(N2,C2) / d(N2,CA2) / d(O2,H3) / d(O2,N2): Table A5-2 pharmacophore distance, S3/S4 region; for a(O1, O2, H3) / a(O1, O2, N2) / a(O2, N2, C2) / a(O2, N2, CA2): Table A6-2 pharmacophore angle
Summary of the method: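 E. coli-expressed CCP2-SP (±6His); apo crystals soaked 1–2× in inhibitor-containing crystallization solution; optional 20% glycerol cryoprotection, LN2 flash-cool; synchrotron data at 1.0 wavelength; MR using 1Q3X portions, partial refinement; single pose analysed when several seen.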

[1] = Table A5-1 pharmacophore: distance between elements, S2/S1 region
[2] = Table A7-1, between pharmacophore elements of the bound compound
[3] = Table A7-2, between pharmacophore elements of the bound compound
[4] = Table A8-6, nearest protein atom in cell to the left

Sequence of MASP-2 CCP2-SP (O00187 445-686): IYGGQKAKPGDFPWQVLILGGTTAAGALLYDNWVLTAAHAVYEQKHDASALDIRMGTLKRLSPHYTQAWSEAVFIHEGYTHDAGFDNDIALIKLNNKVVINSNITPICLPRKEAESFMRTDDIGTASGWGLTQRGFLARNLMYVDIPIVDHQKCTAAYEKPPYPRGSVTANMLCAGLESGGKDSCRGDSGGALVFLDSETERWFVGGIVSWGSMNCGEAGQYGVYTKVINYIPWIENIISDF
Sequence of MASP-2 CCP2-SP (O00187 364-432 partner): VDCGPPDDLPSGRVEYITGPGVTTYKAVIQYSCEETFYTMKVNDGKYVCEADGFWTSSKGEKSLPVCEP

Row | SMILES | Ligand-pharmacophore element distance, pharmacophore element C2 | Ligand-pharmacophore element distance, pharmacophore element C3 | Ligand-pharmacophore element distance, pharmacophore element C4 | Ligand-pharmacophore element distance, pharmacophore element C5 | Ligand-pharmacophore element distance, pharmacophore element C6 | Ligand-pharmacophore element distance, pharmacophore element C7 | Ligand-pharmacophore element distance, pharmacophore element CA1 | Ligand-pharmacophore element distance, pharmacophore element CA2 | Ligand-pharmacophore element distance, pharmacophore element CA3 | Ligand-pharmacophore element distance, pharmacophore element CA4 | Ligand-pharmacophore element distance, pharmacophore element CA5 | Ligand-pharmacophore element distance, pharmacophore element CA6 | d(CA1,O1) [1] | d(CA1,O2) [1] | d(H4,O1) [1] | d(H4,O2) [1] | d(N2,CA2) | d(O2,H3) | d(O2,N2) | a(O2, N2, CA2) | further results
1 | Cc1nc(N)ccc1CNC(=O)C(C)NC(=O)C1CC(c2cccc3ccccc23)CCN1.Cl.Cl (centres unmarked) [1297_3] | 0.28 | 0.23 | 0 | 0 | 0 | 0 | 0.33 | 0.22 | 0 | 0.94 | 0 | 0 | 4.43 | 3.92 | 4.37 | 3.85 | 5.64 | 4.22 | 2.72 | 156.50 | d(C3,CA1) [1]: 2.85; d(CA1,N1)2 [1]: 1.39; d(O1,O2) [1]: 3.55; d(N2,C2): 1.43; a(C3, CA1, O1) (Table A6-1 pharmacophore angle): 150.32; a(CA1, O1, O2) (Table A6-1 pharmacophore angle): 107.42; a(O1, O2, H4) (Table A6-1 pharmacophore angle): 129.38; a(N1, CA1, O1) b) (Table A6-1 pharmacophore angle, Methyl-amino-pyridine compounds): 174.78; a(O1, O2, H3): 143.41; a(O1, O2, N2): 144.44; a(O2, N2, C2): 132.31; Pharmacophore torsion angle a(C3, CA1, O1, H4) [2]: 28.95; Pharmacophore torsion angle a(H4, O1, O2, H3) [2]: 50.29; Pharmacophore torsion angle a(H4, O1, O2, N2) [2]: 141.16; Pharmacophore torsion angle a(N1, CA1, O1, H4) [2]: 22.83; Pharmacophore torsion angle a(O1, H4, O2, CA1) [2]: −86.03; Pharmacophore torsion angle a(O1, O2, N2, C2) [2]: 114.36; Pharmacophore torsion angle a(O1, O2, N2, CA2) [3]: 129.56; Pharmacophore torsion angle a(O1, O2, N2, CA4) [3]: 108.64
2 | C[C@H](NC(=O)[C@H](N)CCCc1ccccc1)C(=O)NCc1ccc(C(=N)N)cc1.Cl.Cl [1042_3] | 2.05 | 0 | 0 | 0 | 0 | 0 | 0.5 | 1.65 | 0 | 0 | 0 | 0 |  | 4.54 |  | 4.90 | 6.60 | 6.75 | 4.11 | 145.75 | d(CA1,N1) [1]: 3.63; d(N2,C2): 3.55; a(O2, N2, C2): 129.44; Pharmacophore protein distance to MET_658 (first MET_658 column) (Table A8-6, 6th residue column, nearest protein atom in cell to the left): 2.74; Pharmacophore protein distance to MET_658 (second MET_658 column) (Table A8-6, 9th residue column, nearest protein atom in cell to the left): 4.20; Pharmacophore protein distance to GLY_528 [4]: 2.99; Pharmacophore protein distance to PHE_529 [4]: 2.42; Pharmacophore protein distance to PRO_608 [4]: 4.06; Pharmacophore protein distance to SER_611 [4]: 2.32; Pharmacophore protein distance to TRP_655 (Table A8-6, pharmacophore elements C6, CA3, O3, H1, nearest protein atom in cell to the left): 3.21
3 | CC(NC(=O)C1CC(Cc2ccccc2)CN1)C(=O)NCc1cnc2c(c1)c(Cl)cn2C.Cl.Cl (mixture of isomers) [1450_A] | 0 | 0 | 0 | 0.34 | 0 | 0.72 | 1.03 | 0.4 | 0 | 0 | 0 | 0 | 5.47 | 4.73 | 3.16 | 3.57 | 5.88 | 2.31 | 2.81 | 154.51 | d(CA1,C5) [1]: 3.55; d(CA1,O4) [1]: 1.75; d(O1,O2) [1]: 3.11; a(C5, CA1, O1) (Table A6-1 pharmacophore angle): 150.97; a(CA1, O1, O2) (Table A6-1 pharmacophore angle): 94.14; a(O1, CA1, C7) (Table A6-1 pharmacophore angle): 136.18; a(O1, CA1, O4) (Table A6-1 pharmacophore angle): 68.80; a(O1, O2, H4) (Table A6-1 pharmacophore angle): 125.38; a(O1, O2, H3): 127.40; a(O1, O2, N2): 139.62; Pharmacophore torsion angle a(O1, O2, N2, CA2) [3]: 120.74
